The Kinase Knowledgebase extract (Sharma et al. 2016)

Molecular target: CDK2 (human) (UniProt P24941)
Test: Enzyme Assay

## Cc1cc(N2CCN(C)CC2)ccc1NC(=O)c1ccc(C(=O)Nc2ccc(-n3cncn3)cc2)s1
  IC50: ≤ 1 µM

## O=C(NCCc1ccccc1)c1ccc(C(=O)Nc2ccc(-n3cncn3)cc2)s1
  IC50: ≥ 40 µM

## O=C(NCc1ccccn1)c1ccc(C(=O)Nc2ccc(-n3cncn3)cc2)s1
  IC50: ≥ 40 µM

## COc1ccc(C(=O)Nc2ccc(C(=O)Nc3ccc(-n4cncn4)cc3)o2)cc1
  IC50: ≥ 40 µM

## Cc1cccc(NC(=O)c2ccc(C(=O)Nc3ccc(-n4cncn4)cc3)s2)n1
  IC50: ≥ 40 µM

## O=C(Nc1ccc(Cl)cc1)c1ccc(C(=O)Nc2ccc(-n3cncn3)cc2)s1
  IC50: 1 to 40 µM

## O=C(Nc1ccc(-n2cncn2)cc1)c1ccc(C(=O)N[C@@H]2CCc3ccccc32)s1
  IC50: ≥ 40 µM

## O=C(Nc1ccc(-n2cncn2)cc1)c1ccc(C(=O)Nc2cccc(-c3cnco3)c2)s1
  IC50: ≥ 40 µM

## COc1ccccc1NC(=O)c1ccc(C(=O)Nc2ccc(-n3cncn3)cc2)s1
  IC50: ≥ 40 µM

## Cc1cc(NCCN(C)C)ccc1NC(=O)c1ccc(C(=O)Nc2ccc(-n3cncn3)cc2)s1
  IC50: 1 to 40 µM

## Cc1cnc(NC(=O)c2ccc(C(=O)Nc3ccc(-n4cncn4)cc3)s2)s1
  IC50: ≥ 40 µM

## O=C(Nc1ccc(-n2cncn2)c(F)c1)c1ccc(C(=O)Nc2ccccc2COc2ccccc2)s1
  IC50: ≥ 40 µM

## COc1ccc(NC(=O)c2ccc(C(=O)Nc3ccc(CN)cc3)s2)c(C)c1
  IC50: ≥ 40 µM

## CNCc1ccc(NC(=O)c2ccc(C(=O)Nc3ccc(-n4cncn4)c(F)c3)s2)c(C)c1
  IC50: 1 to 40 µM

## COc1ccc(NC(=O)c2ccc(C(=O)Nc3ccc(-c4nnc[nH]4)cc3)s2)c(C)c1
  IC50: ≤ 1 µM

## O=C(Nc1ccc(-n2cncn2)c(F)c1)c1ccc(C(=O)Nc2ccccc2Cl)s1
  IC50: ≤ 1 µM

## O=C(NC[C@@H]1CCCO1)c1ccc(C(=O)Nc2ccc(-n3cncn3)cc2)s1
  IC50: ≥ 40 µM

## COc1ccc(NC(=O)c2ccc(C(=O)Nc3ccc(F)cc3-n3cncn3)s2)c(C)c1
  IC50: 1 to 40 µM

## COc1ccc(NC(=O)c2ccc(C(=O)Nc3ccc(-n4cncn4)cc3)s2)c(C(=O)O)c1
  IC50: 1 to 40 µM

## COc1ccc(NC(=O)c2ccc(C(=O)Nc3ccc(-n4cncn4)cc3)s2)cc1OC
  IC50: ≥ 40 µM

## Cc1cc(N(C)CCN(C)C)ccc1NC(=O)c1ccc(C(=O)Nc2ccc(-n3cncn3)cc2)s1
  IC50: ≤ 1 µM

## O=C(Nc1ccc(-n2cncn2)cc1)c1ccc(C(=O)NC2CC2)s1
  IC50: ≥ 40 µM

## CN(C)CCNC(=O)c1ccc(C(=O)Nc2ccc(-n3cncn3)c(F)c2)o1
  IC50: ≥ 40 µM

## O=C(Nc1ccc(-n2cncn2)cc1)c1ccc(C(=O)N2CCCC(c3ccccc3)C2)s1 (stereo unspecified)
  IC50: ≥ 40 µM

## Cn1nc(-c2ccc(Cl)cc2)cc1NC(=O)c1ccc(C(=O)Nc2ccc(-n3cncn3)cc2)s1
  IC50: ≥ 40 µM

## Cc1cc(N[C@H]2CCNC2)ccc1NC(=O)c1ccc(C(=O)Nc2ccc(-n3cncn3)cc2)s1
  IC50: ≤ 1 µM

## Cc1cc(Cn2ccnc2)ccc1NC(=O)c1ccc(C(=O)Nc2ccc(-n3cncn3)cc2)s1
  IC50: ≤ 1 µM

## O=C(Nc1ccc(-n2cncn2)cc1)c1ccc(C(=O)N2CCOCC2)s1
  IC50: ≥ 40 µM

## COc1ccc(NC(=O)c2ccc(C(=O)Nc3ccc(N4CCOCC4)cc3)s2)c(C)c1
  IC50: ≥ 40 µM

## COc1ccc(NC(=O)c2ccc(C(=O)N3CCC(Oc4cnccn4)CC3)s2)c(C)c1
  IC50: 1 to 40 µM

## CN(C)CCCNC(=O)c1ccc(C(=O)Nc2ccc(-n3cncn3)cc2)s1
  IC50: ≥ 40 µM

## Cn1cnc(CCNC(=O)c2ccc(C(=O)Nc3ccc(-n4cncn4)cc3)s2)c1
  IC50: ≥ 40 µM

## COc1ccc(NC(=O)c2ccc(C(=O)Nc3ccc(-c4cnco4)cc3)s2)c(C)c1
  IC50: ≥ 40 µM

## COc1ccc(NC(=O)c2ccc(C(=O)Nc3cccc(-c4cnco4)c3)s2)c(C)c1
  IC50: ≥ 40 µM

## O=C(Nc1ccc(-n2cncn2)cc1)c1ccc(C(=O)Nc2nc3ccccc3s2)s1
  IC50: 1 to 40 µM

## O=C(NC[C@@H]1CCNC1)c1ccc(C(=O)Nc2ccc(-n3cncn3)cc2)s1
  IC50: ≥ 40 µM

## COc1ccc(NC(=O)c2ccc(C(=O)Nc3ccc4sc(SC)nc4c3)s2)c(C)c1
  IC50: ≥ 40 µM

## O=C(Nc1ccc(-n2cncn2)cc1)c1ccc(NC(=O)C2CCCCC2)s1
  IC50: ≤ 1 µM

## CC(C)NC(=O)c1ccc(C(=O)Nc2ccc(-n3cncn3)cc2)s1
  IC50: ≥ 40 µM

## COc1ccc(NC(=O)c2ccc(C(=O)Nc3ccc4nc(C)ccc4c3)s2)c(C)c1
  IC50: ≥ 40 µM

## O=C(Nc1ccc(-n2cncn2)cc1)c1ccc(C(=O)Nc2ccccn2)s1
  IC50: ≥ 40 µM

## COc1ccc(NC(=O)c2ccc(C(=O)Nc3ccc(-n4cncn4)cc3)s2)c(C)c1
  IC50: ≤ 1 µM

## CN1CCC(NC(=O)c2ccc(C(=O)Nc3ccc(-n4cncn4)cc3)s2)CC1
  IC50: ≥ 40 µM

## O=C(Nc1ccc(-n2cncn2)c(F)c1)c1ccc(C(=O)Nc2ccccc2Oc2ccccc2)s1
  IC50: ≥ 40 µM

## O=C(Nc1ccc(-n2cncn2)cc1)c1ccc(C(=O)Nc2ccccc2Cl)s1
  IC50: ≥ 40 µM

## COc1ccc(NC(=O)c2ccc(C(=O)Nc3ccc(-c4csnn4)cc3)s2)c(C)c1
  IC50: ≥ 40 µM

## CN1CCN(c2ccccc2NC(=O)c2ccc(C(=O)Nc3ccc(-n4cncn4)c(F)c3)s2)CC1
  IC50: ≥ 40 µM

## CN1CCC(N(C)C(=O)c2ccc(C(=O)Nc3ccc(-n4cncn4)c(F)c3)o2)CC1
  IC50: ≥ 40 µM

## O=C(Nc1ccc(C(=O)Nc2ccc(-n3cncn3)cc2)o1)c1ccccc1
  IC50: ≥ 40 µM

## COc1ccc(N(C)C(=O)c2ccc(C(=O)Nc3ccc(-n4cncn4)cc3)s2)cc1
  IC50: 1 to 40 µM

## O=C(NCCN1CCOCC1)c1ccc(C(=O)Nc2ccc(-n3cncn3)cc2)s1
  IC50: ≥ 40 µM

## COC(=O)c1ccc(NC(=O)c2ccc(C(=O)Nc3ccc(OC)cc3C)s2)cc1
  IC50: ≥ 40 µM

## O=C(Nc1ccccc1)c1ccc(C(=O)Nc2ccc(-n3cncn3)cc2)o1
  IC50: 1 to 40 µM

## O=C(NC[C@H](O)c1ccccc1)c1ccc(C(=O)Nc2ccc(-n3cncn3)cc2)s1
  IC50: ≥ 40 µM

## Cc1ccccc1NC(=O)c1ccc(C(=O)Nc2ccc(-n3cncn3)cc2)o1
  IC50: ≤ 1 µM

## COc1ccc(NC(=O)c2ccc(C(=O)Nc3ccc(N4CCNCC4)cc3)s2)c(C)c1
  IC50: ≥ 40 µM

## COc1ccc(NC(=O)c2ccc(C(=O)Nc3ccc(C#N)cc3)s2)c(C)c1
  IC50: ≥ 40 µM

## CN1CCC(NC(=O)c2ccc(C(=O)Nc3ccc(-n4cncn4)c(F)c3)o2)CC1
  IC50: ≥ 40 µM

## COc1ccc(NC(=O)c2ccc(C(=O)Nc3ccc(-n4cncn4)cc3)s2)cc1F
  IC50: ≥ 40 µM

## COc1ccc(C(=O)Nc2ccc(C(=O)Nc3ccc(-n4cncn4)cc3)s2)cc1
  IC50: 1 to 40 µM

## Cc1cc(OCCN2CCOCC2)ccc1NC(=O)c1ccc(C(=O)Nc2ccc(-n3cncn3)cc2)s1
  IC50: ≤ 1 µM

## Cn1nc(-c2cccs2)cc1NC(=O)c1ccc(C(=O)Nc2ccc(-n3cncn3)cc2)s1
  IC50: ≥ 40 µM

## O=C(NCC1CCCCC1)c1ccc(C(=O)Nc2ccc(-n3cncn3)cc2)s1
  IC50: ≥ 40 µM

## O=C(Nc1ccc(-n2cncn2)cc1)c1ccc(C(=O)Nc2ccc3c(c2)OCO3)s1
  IC50: ≥ 40 µM

## COc1ccc(NC(=O)c2ccc(C(=O)Nc3ccc4nccnc4c3)s2)c(C)c1
  IC50: ≥ 40 µM

## O=C(Nc1ccc(-n2cncn2)c(F)c1)c1ccc(C(=O)Nc2ccccc2-c2ccccc2)s1
  IC50: 1 to 40 µM

## COc1ccc(N(C)C(=O)c2ccc(C(=O)Nc3ccc(-n4cncn4)cc3)s2)c(C)c1
  IC50: 1 to 40 µM

## O=C(Nc1ccc(-n2cncn2)cc1)c1ccc(C(=O)N2CCN(c3ccccc3)CC2)s1
  IC50: ≥ 40 µM

## O=C(Nc1ccc(-n2cncn2)cc1)c1ccc(C(=O)NC2Cc3ccccc3C2)s1
  IC50: ≥ 40 µM

## O=C(Nc1ccc(-n2cncn2)cc1)c1ccc(C(=O)N2CCN(C3CCCC3)CC2)s1
  IC50: ≥ 40 µM

## Cn1nc(-c2ccccc2)cc1NC(=O)c1ccc(C(=O)Nc2ccc(-n3cncn3)cc2)s1
  IC50: 1 to 40 µM
